How the values were obtained:
[1] = DRUGMATRIX: Serotonin (5-Hydroxytryptamine) 5-HT3 radioligand binding (ligand: [3H] GR-65630); assay type: cell membranes, Membrane; details: hek293; Not Active = under 50% inhibition at 10 µM
[2] = DRUGMATRIX: Tumor Necrosis Factor (TNF), Non-Selective radioligand binding (ligand: [125I] TNF-alpha); assay type: cell membranes, Membrane; details: u-937; Not Active = under 50% inhibition at 10 µM
[3] = molecular target: D(3) dopamine receptor (Homo sapiens, UniProt P35462); assay: DRUGMATRIX: Dopamine D3 radioligand binding (ligand: [3H] Spiperone); assay type: cell membranes, CHO, Membrane
Chain of D(3) dopamine receptor (P35462 whole entry): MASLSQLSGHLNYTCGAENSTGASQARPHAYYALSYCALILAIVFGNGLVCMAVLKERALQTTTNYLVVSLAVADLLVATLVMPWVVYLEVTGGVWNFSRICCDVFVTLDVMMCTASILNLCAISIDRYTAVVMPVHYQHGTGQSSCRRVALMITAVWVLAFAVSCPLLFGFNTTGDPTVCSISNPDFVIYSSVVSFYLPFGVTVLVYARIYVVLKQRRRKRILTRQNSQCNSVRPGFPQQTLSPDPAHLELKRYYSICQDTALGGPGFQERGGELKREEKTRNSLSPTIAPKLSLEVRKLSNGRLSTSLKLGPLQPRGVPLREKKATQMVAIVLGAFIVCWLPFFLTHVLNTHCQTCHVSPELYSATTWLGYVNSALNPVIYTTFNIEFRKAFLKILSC

[4] = DRUGMATRIX: Imidazoline I2, Central radioligand binding (ligand: [3H] Idazoxan); assay type: cell membranes, Rattus norvegicus, Wistar, Cerebral cortex, Membrane; details: Not Active = under 50% inhibition at 10 µM
[5] = molecular target: T1, Neutrophil elastase (Homo sapiens, UniProt P08246); assay type: tissue-based;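 further: inhibition of neutrophil elastase enzyme activity, measured with a p-nitroanilide-linked peptide substrate; in other assays of this panel Not Active means under 50% inhibition at 10 µM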
T1 sequence (P08246 whole entry): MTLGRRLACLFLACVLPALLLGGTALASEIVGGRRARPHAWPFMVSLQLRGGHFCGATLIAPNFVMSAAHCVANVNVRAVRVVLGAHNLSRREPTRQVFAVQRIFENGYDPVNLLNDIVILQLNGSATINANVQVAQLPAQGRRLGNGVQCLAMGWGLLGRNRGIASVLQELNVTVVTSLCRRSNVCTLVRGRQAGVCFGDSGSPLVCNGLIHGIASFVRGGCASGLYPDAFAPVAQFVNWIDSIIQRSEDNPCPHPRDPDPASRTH

Compound | IC50 [1] | Ki [1] | IC50 [2] | Ki [2] | IC50 ([3]; cho) | IC50 [4] | Ki [4] | IC50 [5] | IC50 ([3]; read-out: IC50) [nM] | Ki ([3]; read-out: Ki) [nM] | IC50 ([4]; read-out: IC50) [nM] | Ki ([4]; read-out: Ki) [nM]
COc1cc(N)nc2[nH]c(-c3ccc(F)cc3)c(-c3ccncc3)c12 | Not Active | Not Active | Not Active | Not Active | Not Active | Not Active | Not Active | Not Active |  |  |  | 
CNS(=O)(=O)Cc1ccc2[nH]cc(CCN(C)C)c2c1 | Not Active | Not Active | Not Active | Not Active | Not Active | Not Active | Not Active | Not Active |  |  |  | 
CCCc1nn(C)c2c(=O)[nH]c(-c3cc(S(=O)(=O)N4CCN(C)CC4)ccc3OCC)nc12 | Not Active | Not Active | Not Active | Not Active | Not Active | Not Active | Not Active | Not Active |  |  |  | 
COc1ccc(/C=C/C(=O)Nc2ccccc2C(=O)O)cc1OC | Not Active | Not Active | Not Active | Not Active | Not Active | Not Active | Not Active | Not Active |  |  |  | 
CCOC(N)=O | Not Active | Not Active | Not Active | Not Active | Not Active | Not Active | Not Active | Not Active |  |  |  | 
CC(=O)Nc1nnc(S(N)(=O)=O)s1 [ACETAZOLAMIDE] |  |  |  |  | Not Active |  |  | Not Active |  |  |  | 
O=c1[nH]c2ccccc2n1CCCN1CCC(n2c(=O)[nH]c3cc(Cl)ccc32)CC1 [DOMPERIDONE] |  |  |  |  |  |  |  | Not Active |  |  |  | 
CC1=C(CC(=O)O)c2cc(F)ccc2/C1=C\c1ccc(S(C)(=O)=O)cc1 [EXISULIND] | Not Active | Not Active | Not Active | Not Active | Not Active | Not Active | Not Active | Not Active |  |  |  | 
CC(C)OC(=O)C(C)(C)Oc1ccc(C(=O)c2ccc(Cl)cc2)cc1 [FENOFIBRATE] |  |  |  |  |  |  |  | Not Active |  |  |  | 
OCCN1CCN(CCCN2c3ccccc3Sc3ccc(C(F)(F)F)cc32)CC1 [FLUPHENAZINE] |  |  |  |  |  |  |  | Not Active |  |  |  | 
CN1C2CCCC1CC(NC(=O)c1nn(C)c3ccccc13)C2 (stereo not drawn) [GRANISETRON] |  |  |  |  | Not Active |  |  | Not Active |  |  |  | 
Nc1nc2c(c(=O)[nH]1)N(C=O)C(CNc1ccc(C(=O)N[C@@H](CCC(=O)O)C(=O)O)cc1)CN2 (stereo partly drawn) [LEUCOVORIN] | Not Active | Not Active | Not Active | Not Active | Not Active | Not Active | Not Active | Not Active |  |  |  | 
C[C@@H](O)[C@H]1C(=O)N2C(C(=O)O)=C(S[C@@H]3CN[C@H](C(=O)N(C)C)C3)[C@H](C)[C@H]12 [MEROPENEM] | Not Active | Not Active | Not Active | Not Active | Not Active | Not Active | Not Active | Not Active |  |  |  | 
CC[C@@H](CO)NC(=O)[C@@H]1C=C2c3cccc4c3c(cn4C)C[C@H]2N(C)C1 [METHYSERGIDE] |  |  |  |  |  |  |  | Not Active | 172 | 59 |  | 
CCN(CC)CC#CCOC(=O)C(O)(c1ccccc1)C1CCCCC1 (stereo not drawn) [OXYBUTYNIN] |  |  |  |  |  |  |  | Not Active |  |  |  | 
O=P(O)(O)C(O)(Cc1cccnc1)P(=O)(O)O [RISEDRONIC ACID] | Not Active | Not Active | Not Active | Not Active | Not Active | Not Active | Not Active | Not Active |  |  |  | 
CN(CCOc1ccc(CC2SC(=O)NC2=O)cc1)c1ccccn1 (stereo not drawn) [ROSIGLITAZONE] | Not Active | Not Active | Not Active | Not Active | Not Active | Not Active | Not Active | Not Active |  |  |  | 
C=C(C)[C@H]1Cc2c(ccc3c2O[C@@H]2COc4cc(OC)c(OC)cc4[C@@H]2C3=O)O1 [ROTENONE] | Not Active | Not Active | Not Active | Not Active | Not Active | Not Active | Not Active | Not Active |  |  |  | 

Compound | IC50 [1] | Ki [1] | IC50 [2] | Ki [2] | IC50 ([3]; cho) | IC50 [4] | Ki [4] | IC50 [5] | IC50 ([3]; read-out: IC50) [nM] | Ki ([3]; read-out: Ki) [nM] | IC50 ([4]; read-out: IC50) [nM] | Ki ([4]; read-out: Ki) [nM]
C#CCN(C)[C@H](C)Cc1ccccc1 [SELEGILINE] | Not Active | Not Active | Not Active | Not Active | Not Active |  |  | Not Active |  |  | 1610 | 1080
CO[C@H]1C[C@@H]2CC[C@@H](C)[C@@](O)(O2)C(=O)C(=O)N2CCCC[C@H]2C(=O)O[C@H]([C@H](C)C[C@@H]2CC[C@@H](O)[C@H](OC)C2)CC(=O)[C@H](C)/C=C(\C)[C@@H](O)[C@@H](OC)C(=O)[C@H](C)C[C@H](C)/C=C/C=C/C=C/1C [SIROLIMUS] | Not Active | Not Active | Not Active | Not Active | Not Active | Not Active | Not Active | Not Active |  |  |  | 
CN[C@@H]1[C@H](O)[C@H](NC)[C@H]2O[C@@]3(O)C(=O)C[C@@H](C)O[C@H]3O[C@@H]2[C@H]1O [SPECTINOMYCIN] | Not Active | Not Active | Not Active | Not Active | Not Active | Not Active | Not Active | Not Active |  |  |  | 
Nc1ccc(S(=O)(=O)Nc2ncccn2)cc1 [SULFADIAZINE] | Not Active | Not Active | Not Active | Not Active | Not Active | Not Active | Not Active | Not Active |  |  |  | 
COc1ncnc(NS(=O)(=O)c2ccc(N)cc2)c1OC [SULFADOXINE] | Not Active | Not Active | Not Active | Not Active | Not Active | Not Active | Not Active | Not Active |  |  |  | 
Nc1ccc(S(=O)(=O)Nc2nccs2)cc1 [SULFATHIAZOLE] | Not Active | Not Active | Not Active | Not Active | Not Active | Not Active | Not Active | Not Active |  |  |  | 
C[C@]12CC[C@H]3[C@@H](CCC4=CC(=O)CC[C@@]43C)[C@@H]1CC[C@@H]2O [TESTOSTERONE] | Not Active | Not Active | Not Active | Not Active | Not Active | Not Active | Not Active | Not Active |  |  |  | 
CC(C)(C)NC[C@H](O)COc1nsnc1N1CCOCC1 [TIMOLOL] | Not Active | Not Active | Not Active | Not Active | Not Active | Not Active | Not Active | Not Active |  |  |  | 
CCS(=O)(=O)CCn1c([N+](=O)[O-])cnc1C [TINIDAZOLE] | Not Active | Not Active | Not Active | Not Active | Not Active | Not Active | Not Active | Not Active |  |  |  | 
C[C@@H]1C[C@H]2[C@@H]3CCC4=CC(=O)C=C[C@]4(C)C3=CC[C@]2(C)[C@H]1C(=O)CN1CCN(c2cc(N3CCCC3)nc(N3CCCC3)n2)CC1 [TIRILAZAD] | Not Active | Not Active | Not Active | Not Active | Not Active | Not Active | Not Active | Not Active |  |  |  | 
NC[C@H]1O[C@H](O[C@H]2[C@H](O)[C@@H](O[C@H]3O[C@H](CO)[C@@H](O)[C@H](N)[C@H]3O)[C@H](N)C[C@@H]2N)[C@H](N)C[C@@H]1O [TOBRAMYCIN] | Not Active | Not Active | Not Active | Not Active | Not Active | Not Active | Not Active | Not Active |  |  |  | 
O=c1n(CCCN2CCN(c3cccc(Cl)c3)CC2)nc2ccccn12 [TRAZODONE] |  |  |  |  |  |  |  | Not Active |  |  |  | 
O=C(O)C(Cl)(Cl)Cl [TRICHLOROACETIC ACID] | Not Active | Not Active | Not Active | Not Active | Not Active | Not Active | Not Active | Not Active |  |  |  | 
COc1ccc(CN2CCNCC2)c(OC)c1OC [TRIMETAZIDINE] | Not Active | Not Active | Not Active | Not Active | Not Active | Not Active | Not Active | Not Active |  |  |  | 
CC(=O)O[C@H]1C[C@@H]2CC[C@@H]3[C@H](CC[C@@]4(C)[C@H]3C[C@H]([N+]3(C)CCCCC3)[C@@H]4OC(C)=O)[C@@]2(C)C[C@@H]1N1CCCCC1.[Br-] [VECURONIUM BROMIDE] | Not Active | Not Active | Not Active | Not Active | Not Active | Not Active | Not Active | Not Active |  |  |  | 
COc1cc(C(=O)NS(=O)(=O)c2ccccc2C)ccc1Cc1cn(C)c2ccc(NC(=O)OC3CCCC3)cc12 [ZAFIRLUKAST] | Not Active | Not Active | Not Active | Not Active | Not Active | Not Active | Not Active | Not Active |  |  |  | 
Cc1cn([C@H]2C[C@H](N=[N+]=[N-])[C@@H](CO)O2)c(=O)[nH]c1=O [ZIDOVUDINE] | Not Active | Not Active | Not Active | Not Active | Not Active | Not Active | Not Active | Not Active |  |  |  | 
